{"source": "patent US8138148B2", "about": "“GDNF derived peptides” (Copenhagen University, priority 2005, dated 2012)", "key": {"[1]": {"tested_on": "primary hippocampal neurons", "assay": "Neurite outgrowth assay, monocultures of primary hippocampal neurons", "assay_type": "cell-based, rat", "conditions": "monoculture, stimulated 24 hours; GDNF 1-100 ng/ml, peptides 0.1-27 μg/ml; versus medium alone", "protocol": "(§1) Two different versions of the neurite outgrowth assay were used in this study, monocultures and co-cultures.\n(§2) In monocultures, neurons are grown directly on plastic and the only neuritogenic stimulus is the one presented by the added substance. In co-cultures, neurons are grown on top of a confluent monolayer of fibroblasts expressing NCAM-140 (LBN110) or NCAM-negative control fibroblasts (LVN212). NCAM on the neurons interact with NCAM on LBN110 cells thereby stimulating neurite outgrowth from the neurons. This system thus permits the study of NCAM-NCAM interactions and interactions between NCAM and other molecules.\n(§3) For all experiments cells were grown in neurobasal medium with supplements as described above in a final volume of 300 μl/well in 8-well LabTek® Permanox Chamber slides or 500 μl/well in 4-well LabTek® Permanox Chamber slides.\nFor monocultures, primary hippocampal neurons were seeded in 8-well LabTek® Permanox Chamber slides at a density of 10,000 cells/well.\n(§4) To evaluate the effect peptides on neurite outgrowth, GDNF and the peptides, G1, G2, G3, A1, A2, A3, N1, N2 and N3 were diluted to the appropriate concentrations and added to the neurons approximately 10 minutes after seeding. Medium alone was added to controls, and cells were incubated for 24 hours.\nNeurite outgrowth experiments were terminated after the stated time by fixating the cells. To visualize neurons and their neurites, immunostaining of GAP-43 was performed. This staining is specific for neurons. Transfected cells and their neurites should be visible without immunostaining due to the fluorescence emitted by GFP. […] GFP is a cytoplasmic protein, and since thin neurites only contain a small volume of cytoplasm, GFP is only found in small amounts in most neurites. Therefore, a double-staining protocol, where cells were immunostained against GFP and GAP-43, was adopted. This protocol allowed the identification of transfected cells on the basis of GFP-staining in combination with visualization of neurites based on GAP-43-staining. […]"}, "hippocampal neurons": {"tested_on": "hippocampal neurons", "assay": "Neurite outgrowth assay, co-cultures of hippocampal neurons on control fibroblasts or NCAM-expressing fibroblasts", "assay_type": "cell-based, rat", "conditions": "24 hours", "protocol": "as §1, §2, §3\nFor cocultures, L-cells were seeded in 8-well LabTek® Permanox Chamber slides at a density of 100.000 cells/well, except for transfection experiments where cells were seeded in 4-well LabTek® Permanox Chamber slides at a density of 200.000 cells/well. L-cells were grown for 24 hours in DMEM supplemented with 10% (v/v) FCS, 1% (v/v) glutamax, 100 U/ml penicillin, 100 μg/ml streptomycin, 2.5 μg/ml fungizone, and 567 μg/ml neomycin (G418), followed by washing twice in neurobasal medium with supplements before primary hippocampal neurons were seeded at a density of 7.000 cells/well in 8-well slides or 20.000 cells/well in 4-well slides.\nas §4\nNeurite outgrowth experiments were terminated after the stated time by fixating the cells. To visualize neurons and their neurites, immunostaining of GAP-43 was performed. This staining is specific for neurons. Transfected cells and their neurites should be visible without immunostaining due to the fluorescence emitted by GFP. […] GFP is a cytoplasmic protein, and since thin neurites only contain a small volume of cytoplasm, GFP is only found in small amounts in most neurites. Therefore, a double-staining protocol, where cells were immunostained against GFP and GAP-43, was adopted. This protocol allowed the identification of transfected cells on the basis of GFP-staining in combination with visualization of neurites based on GAP-43-staining.\nWithout prior removal of the medium 300 μl/well (8-well slides) or 500 μl/well (4-well slides) of a PBS solution containing 0.4 mM CaCl2, 0.05 M sucrose and 8% (v/v) formaldehyde was added to the cultures for 20 minutes. Cells were then washed 10 minutes in PBS followed by washing in PBS with 1% (w/v) BSA for 20 minutes, after which cells were incubated with primary antibodies overnight at 4° C.\nRabbit anti-rat GAP-43 antibodies were diluted 1:1000 for staining of untransfected cells and 1:2000 for staining of transfected cells. Mouse anti-GFP antibodies were diluted 1:1000. Antibodies were diluted in a PBS solution containing 7% (v/v) FCS to block unspecific binding, 50 mM glycine to block formaldehyde used for fixation, 0.2% (v/v) saponin to permeabilize cells, and 0.02% (v/v) NaN3 to preserve antibodies for later use.\nThe next day cells were washed 10 minutes in PBS followed by washing in PBS with 1% (w/v) BSA for 20 minutes. Cells were then incubated with secondary antibodies diluted in PBS with 1% (w/v) BSA for one hour at room temperature. Goat anti-rabbit IgG antibodies conjugated to Alexa 488 were diluted 1:1000 for untransfected cells and 1:2000 for transfected cells. Goat anti-mouse IgG antibodies conjugated to Alexa 546 were diluted 1:1000. Finally cells were washed 3×7 minutes in PBS and mounted with fluorescent mounting medium. […]"}}, "data": [{"sequence": "ETTYDKILKNLSRNR (listed as Homo sapiens) [G2, GDNF fragment]", "values": [{"measurement": "neurite outgrowth, overall effect of treatment (one-way ANOVA)", "setting": "[1]", "value": "overall statistical significant effect"}, {"measurement": "neurite outgrowth, overall effect of treatment, neurons grown on NCAM-expressing fibroblasts", "setting": "hippocampal neurons; co-culture on NCAM-expressing fibroblasts, GDNF 1-100 ng/ml, peptides 0.1-81 μg/ml", "value": "overall significant effect"}, {"measurement": "neurite outgrowth, overall effect of treatment, neurons grown on control fibroblasts", "setting": "hippocampal neurons; co-culture on control fibroblasts, GDNF 1-100 ng/ml, peptides 0.1-81 μg/ml", "value": "overall significant effect"}, {"measurement": "difference between neurite outgrowth on control fibroblasts and on NCAM-expressing fibroblasts across concentrations (one-way ANOVA)", "setting": "hippocampal neurons; difference per concentration, expressed as percentage of control", "value": "mean differences are not all the same"}]}]}
